Laboratory results: patent publication US20260091049A1, “HALIDE-FREE AMMONIUM SILANES” (TOPIKOS SCIENTIFIC, INC., priority 2022, published 2026)
Several values for one entry are separate records, joined by “and”; a condition that tells them apart may be missing. Equal entries are not always repeated.

What was measured:
[1] = Polymerization stability in aqueous media by LCMS/MS quantification of hydrolyzed trisiloxy species; format: physicochemical
[2] = Clarity and dissolution of the solid product in water; format: physicochemical
Procedure: A 500 mL round bottom reaction vessel was outfitted with an oil bath, stir bar, distillation head and condenser, receiving flask, oil bubbler, gas inlet that allows argon to pass through vessel and distillation setup, an immersion thermoprobe for the oil bath, and a thermoprobe for the head. The reactor is charged with 47.6 mL of a 42% methanolic solution of dimethyloctadecyl[3-(trimethoxysilyl)propyl]ammonium chloride (Aldrich), 200 mL DMF, 27.7 g (3 equiv.) of N-Tris(hydroxymethyl)methyl-2-aminoethanesulfonic acid (TES) and 8.7 mL of 25% MeONa in MeOH. The mixture is heated to 125 degrees C. (oil temp) and the methanol is collected by distillation. As the reaction is heated a homogenous solution is formed. As the methanol is distilled off a white precipitate begins to form. The reaction is heated until the head temp drops and no more MeOH is evolved (about 1.5 hours). The reaction is then cooled to room temperature and the precipitate (NaCl) is removed by filtration through a glass fiber filter and the DMF was concentrated to about 100 mL total volume at reduced pressure. The solution is cooled to rt. A 1 L flask under argon and a stir bar is charged with anhydrous acetonitrile (1000 mL) and cooled to ˜10 C. The DMF solution is added slowly to rapidly stirring acetonitrile to form a white suspension. Stirring is continued for 30 minutes. […]

Row | SMILES | 2022 Concentration of Compound 1 hydrolysis product, average ([1]; average of three measurements after storage under ambient conditions for multiple years) | 2019 Concentration of Compound 1 hydrolysis product, average ([1]; average of three measurements, reference value immediately after preparation) | stability to polymerization in aqueous media ([1]; over prolonged periods of time) | 2022 Concentration of Compound 1 hydrolysis product ([1]; single measurements after storage under ambient conditions for multiple years, expected 60 μg/mL, expressed as Compound 1 equivalent) | 2019 Concentration of Compound 1 hydrolysis product ([1]; single measurements immediately after preparation, Compound 1 diluted in water to expected 60 μg/mL, expressed as Compound 1 equivalent) | time a solution in water remains clear ([2]; 1% solution in water) [months] | dissolution of the powder in water ([2]; fine powder, water, gentle heating)
1 | CCCCCCCCCCCCCCCCCC[N+](C)(C)CCC[Si](O)(O)O [Compound 1 hydrolysis product] | Average: 58.3 μg/mL | Average: 62.6 μg/mL | excellent stability to polymerization | 59.2 µg/mL and 54.8 µg/mL and 60.9 µg/mL | 69.1 µg/mL and 54.3 µg/mL and 64.4 µg/mL | – | –
2 | CCCCCCCCCCCCCCCCCC[N+](C)(C)CCC[Si](OCC(CO)(CO)NCCS(=O)(=O)[O-])(OCC(CO)(CO)NCCS(=O)(=O)O)OCC(CO)(CO)NCCS(=O)(=O)O [Example 1, 2-[[1-[[3-[dimethyl(octadecyl)ammonio]propyl-[3-hydroxy-2-(hydroxymethyl)-2-(2-sulfoethylamino)propoxy]-[3-hydroxy-2-(hydroxymethyl)-2-(2-sulfoethylamino)propoxy]silyl]oxymethyl]-2-hydroxy-1-(hydroxymethyl)ethyl]amino]-ethanesulfonate] | – | – | – | – | – | > 5 | dissolves quickly in water with gentle heating
